From ChEMBL document CHEMBL3112401, “Activity of diimidazoline amides against African trypanosomiasis” (Bioorg Med Chem Lett, 2014)
Active and inactive are the calls of the source. No cut-off for these calls is given here.

Key:
L6 = assay: Cytotoxicity against rat L6 cells assessed as cell viability after 70 hrs by MTT assay; format: cell-based; conditions: L6, 70 h
[1] = tested on: Trypanosoma brucei rhodesiense; assay: Antitrypanosomal activity against Trypanosoma brucei rhodesiense STIB900 assessed as parasite growth inhibition after 70 hrs by Alamar blue assay; format: functional, organism-based; conditions: STIB900, 70 h
[2] = tested on: Trypanosoma brucei rhodesiense; assay: Antitrypanosomal activity against Trypanosoma brucei rhodesiense infected in mouse assessed as cure rate at 40 mg/kg, ip administered on day 1 to 3 relative to control; format: functional; conditions: route intraperitoneal
Mus musculus = assay: Toxicity in mouse infected with Trypanosoma brucei rhodesiense at 50 mg/kg, ip measured after day 3; format: organism-based; set-up: dose 50 mg/kg, route intraperitoneal; conditions: in vivo
[3] = tested on: Trypanosoma brucei rhodesiense; assay: Antitrypanosomal activity against Trypanosoma brucei rhodesiense infected in mouse assessed as mean survival days at 50 mg/kg, ip administered on day 3 to 6 (reference value: 6 to 10 days); format: functional; conditions: route intraperitoneal
[4] = tested on: Trypanosoma brucei rhodesiense; assay: Antitrypanosomal activity against Trypanosoma brucei rhodesiense infected in mouse assessed as survival more than 60 days without parasitemia relapse at 50 mg/kg, ip administered on day 3 to 6; format: functional, organism-based; set-up: dose 50 mg/kg

Row | Structure (SMILES) | IC50 (L6) [µM] | IC50 [1] [µM] | Activity [2] [%] | Activity (Mus musculus) | MSD [3] [days] | Activity [4]
1 | O=C(NCc1ccncc1)c1ccc(-c2cc3ccc(C4=NCCN4)cc3[nH]2)cc1 | 89 | 0.023 | 100 |  |  | 
2 | O=C(NCc1ccc(C2=NCCN2)cc1)c1ccc(C(=O)NCc2ccc(C3=NCCN3)cc2)cc1 | 92 | 9.5 |  |  |  | 
3 | O=C(N[C@H]1CC[C@H](NC(=O)c2ccc(C3=NCCN3)cc2)CC1)c1ccc(C2=NCCN2)cc1 | 130 | 0.69 |  |  |  | 
4 | Nc1nc(N)nc(Nc2ccc([As]3SCC(CO)S3)cc2)n1 (stereo unspecified) [MELARSOPROL] | 19 | 0.0038 |  |  |  | 
5 | CS(=O)(=O)O.O=C(Nc1ccc(C2=NCCN2)cc1)c1ccc(-c2ccc(C(=O)Nc3ccc(C4=NCCN4)cc3)cc2)cc1 | > 150 | 0.019 | 100 | Non-toxic | 11 | inactive
6 | CS(=O)(=O)O.O=C(Nc1cccc(C(=O)Nc2ccc(C3=NCCN3)cc2)c1)c1ccc(C2=NCCN2)cc1 | 99 | 0.12 | 100 | Non-toxic | >60 | Active
7 | CS(=O)(=O)O.O=C(Nc1ccc(C2=NCCN2)cc1)c1ccc(C(=O)Nc2ccc(C3=NCCN3)cc2)cc1 | 110 | 0.0047 | 100 |  | 39 | 
8 | CS(=O)(=O)O.O=C(NCc1ccc(C2=NCCN2)cc1)c1ccc(-c2cc3ccc(C4=NCCN4)cc3[nH]2)cc1 | 41 | 0.0015 | 100 | Toxic |  | inactive
9 | CS(=O)(=O)O.O=C(Nc1ccc(C2=NCCN2)cc1)c1ccc(NC(=O)c2ccc(C3=NCCN3)cc2)cc1 | 50 | 0.011 | 100 | Non-toxic | >60 | Active
10 | O=C(NCc1ccc(C2=NCCN2)cc1)c1cccc(C(=O)NCc2ccc(C3=NCCN3)cc2)c1 | > 150 | 64 |  |  |  | 
11 | CS(=O)(=O)O.O=C(Nc1ccc(NC(=O)c2ccc(C3=NCCN3)cc2)cc1)c1ccc(C2=NCCN2)cc1 | 92 | 0.12 | 100 | Non-toxic | >60 | Active
12 | CS(=O)(=O)O.O=C(Nc1ccc(C2=NCCN2)cc1)c1cccc(C(=O)Nc2ccc(C3=NCCN3)cc2)c1 | 120 | 0.051 | 100 |  | >60 | Active
13 | O=C(NCc1ccccc1)c1ccc(-c2cc3ccc(C4=NCCN4)cc3[nH]2)cc1 | 110 | 2.2 |  |  |  | 
14 | CS(=O)(=O)O.O=C(Nc1ccc(C2=NCCN2)cc1)c1ccc(C2=NCCN2)cc1 | 68 | 0.086 | 100 | Non-toxic | 34 | 
15 | N=C(N)c1ccc(OCCCCCOc2ccc(C(=N)N)cc2)cc1 [PENTAMIDINE ISETHIONATE] | 5.1 | 0.0015 |  |  |  | 
16 | O=C(Nc1ccc(C2=NCCN2)cc1)c1ccc(-c2cc3ccc(C4=NCCN4)cc3[nH]2)cc1 | 19 | 0.0022 | 100 |  |  | 
